Data taken from patent US11022604B2, “Dock derived compound against laminin receptor (37 LR) and uses thereof” (Purdue Research Foundation, priority 2017, dated 2021).

Assays:
Assay type in all cases: cell-based
[1] = tested on: endothelial vessel formation in vitro (tube formation); experiment: Angiogenesis tube formation assay (derivatives); details: 30 uM, 7 hour incubation
Description: FIGS. 28A-28F Representative images of tube formation. 7 hour incubation period with respective compounds: FIG. 28A, DMSO; FIG. 28B DBGII-3, 30 uM; FIG. 28C, EGCG, 30 uM; FIG. 28 D, DBGII-5, 30 uM, FIG. 28E, C3, 30 uM; FIG. 28 F, DBGII-9, 30 uM.
An angiogenesis tube formation assay was used to characterize the impact of compounds against endothelial vessel formation in vitro (i.e., tube formation).

[2] = tested on: PC3 prostate cancer cell lines; experiment: CCK8 cell viability screen of derivatives; details: PC3, CCK8, day three
Description: FIGS. 22A-22B. Screen of all the derivatives made in Example 17 in CCK8 cell viability assay with PC3 prostate cancer cell lines at day 3 (FIG. 22A) and day 5 (FIG. 22B).
FIG. 23. All derivatives made in Example 17 are tested for cell inhibition percentage at day 3.
CCK8 cell viability assay with PC3 prostate cancer cell lines is conducted and cell viability on day 3, day 5 are examined, see FIGS. 22A-22B. Additionally, the cell inhibition percentage for compounds DBG1-191, 1-200, 02-09, 2-14, among others were further characterized in CCK8 assay against PC3.

[3] = tested on: PC3 prostate cancer cell line; experiment: Cell Titer Glo cell viability assay
Source text: In this series of cell viability experiments, we used the highly sensitive Cell Titer Glo reagents from Promega in PC3 prostate cancer cell line. We compared the parental compound C3 effect on reducing cell viability with the best derivative compound, DBG-02-09.

PC-3 cells = experiment: PC-3 cell viability response to recombinant PEDF (CCK-8); details: 48 hours
Description: FIG. 13. PC-3 Cell Viability Response To Recombinant PEDF PC-3 cells were treated with 0.1 to 0.6 μM rPEDF for 48 hours and cell viability was measured using the CCK-8 assay (n=3, mean±SEM). A one-way ANOVA was used for statistical analysis (n.s. p=0.11) however the linear trend was significant (post test for linear trend, p<0.05).
Recombinant PEDF (BioProductsMD) was resuspended in PEDF Buffer (0.2 M NaCl, 20 mM sodium phosphate, and 1 mM DTT; ph 6.4). 1,500 cells per well were seeded in a clear 96-well plate in RPMI-1640 with 1% anti-anti and 10% FBS and allowed to grow overnight. A 0-hour recording was taken using CCK-8 and compared to a 48-hour reading after incubating PC-3 cells with recombinant PEDF (0.1 μM to […]) in RPMI-1640 with 1% anti-anti and 1% FBS. […] The adenovirus was administered intravenously (2×10^8 pfu/i.v.) 3 days following subcutaneous TC2-Ras cell implantation (10^4 or 10^5, without mAR (−mAR control) or with mAR (+mAR) in C57/BL6 male mice. Mice were injected intraperitoneally with 150 mg/kg Luciferin (10-20 min incubation) followed by a 5 min signal acquisition using an IVIS 100 imager (Caliper/PerkinElmer, Downers Grove, Ill.) and analyzed with LivingImage 3.1 software (Caliper/PerkinElmer), with signals reported as photons per second per […] per steridian (p/sec/cm^2/sr). Statistics. Statistical analysis was performed using GraphPad Prism 6. […]

Molecule | tube formation [1] | cell inhibition percentage (rank among derivatives) [2] | IC50 ([3]; Homo sapiens, PC-3, PC3 cells) | reduction of IC50 relative to parental compound C3 ([3]; PC3 cells) | dose/response relationship for survival of PC-3 cells (PC-3 cells)
O=C(c1ccccc1)N1CCN(C2c3ccccc3-c3ccccc32)CC1 [DBGII-05] | Thinning of tubes formed | – | – | – | –
CN(C)CCOc1ccccc1C(=O)N1CCN(C2c3ccccc3-c3ccccc32)CC1 [DBGII-09] | Thinning of tubes formed | highest inhibition | 7.6 ± 0.52 µM | 2.2 fold | –
O=C(c1ccncc1Oc1ccccc1)N1CCN(C2c3ccccc3-c3ccccc32)CC1 [DBGII-03] | Thinning of tubes formed | – | – | – | –
recombinant PEDF: Recombinant pigment epithelium-derived factor (BioProductsMD), secreted glycoprotein (protein, UniProt P36955 20-418, looked up) Pigment epithelium-derived …: QNPASPPEEGSPDPDSTGALVEEEDPFFKVPVNKLAAAVSNFGYDLYRVRSSTSPTTNVLLSPLSVATALSALSLGAEQRTESIIHRALYYDLISSPDIHGTYKELLDTVTAPQKNLKSASRIVFEKKLRIKSSFVAPLEKSYGTRPRVLTGNPRLDLQEINNWVQAQMKGKLARSTKEIPDEISILLLGVAHFKGQWVTKFDSRKTSLEDFYLDEERTVRVPMMSDPKAVLRYGLDSDLSCKIAQLPLTGSMSIIFFLPLKVTQNLTLIEESLTSEFIHDIDRELKTVQAVLTVPKLKLSYEGEVTKSLQEMKLQSLFDSPDFSKITGKPIKLTQVEHRAGFEWNEDGAGTTPSPGLQPAHLTFPLDYHLNQPFIFVLRDTDTGALLFIGKILDPRGP | – | – | – | – | unable to demonstrate a significant dose/response relationship
